Values of other authors in patent publication US6730319B2, “Pharmaceutical compositions having depressed melting points” (Hoffmann-La Roche Inc., priority 2001, dated 2004).

Details: in vivo

**Q.** Which “bioavailability increase in the fed status compared to the fasted state” value does the source give for Cc1c(C)c2c(c(C)c1OC(=O)c1cccnc1)CC[C@@](C)(CCC[C@H](C)CCC[C@H](C)CCCC(C)C)O2 [alpha-tocopherol-nicotinate] here?
**A.** 28 fold
